According to patent US5202243A, “Method of hydroxylating 3-[2-(benzoxazol-2-yl)ethyl]-5-ethyl-6-methyl-2-(1H)-pyridinone by incubation with liver slices” (Merck & Co., Inc., priority 1992, dated 1993):

Tests used:
[1] = molecular target: T1, recombinant HIV reverse transcriptase (HIV RTR) (Human immunodeficiency virus type 1 group M subtype B, UniProt P04585); assay: Reverse transcriptase assay (incorporation of tritiated dGMP into acid-precipitable cDNA); type: biochemical; conditions: [dGTP] and poly r(C).oligo d(G)12-18 at approx. Km; 37° C., 45 minutes; read-out: calculated IC50
T1 construct: recombinant HIV reverse transcriptase (HIV RTR)
Protocol: The assay measures the incorporation of tritiated deoxyguanosine monophosphate by recombinant HIV reverse transcriptase (HIV RTR) (or other RT) into acid-precipitable cDNA at the Km values of dGTP and poly r(C).oligo d(G)12-18.
Thirty uL of a reaction mixture containing equal volumes of: 500 mM Tris.HCl (pH 8.2), 300 mM MgCl2, 1200 mM KCl, 10 mM DTT, 400 μg/mL poly r(c).oligo d(G) [prepared by dissolving 1.5 mg (25 U) poly r(C).oligo d(G) in 1.5 ml sterile distilled H2 O and diluting to 400 μg/ml], 0.1 μCi/μl [^3 H] dGTP, 160 μM dGTP, were added to 10 μl sterile distilled H2 O, and 2.5 μl of potential inhibitor. An aliquot of 10 μL of 5 nM purified HIV RTR was added to initiate the reaction. The mixture was incubated at 37° C. for 45 minutes.
After incubation is complete, the tubes were cooled in ice for 5 minutes. Ice-cold 13% TCA containing 10 mM NaPPi (200 μl) are added and the mixture incubated on ice for 30 minutes. The precipitated cDNA is removed by filtration using presoaked glass filters [TCA, NaPPi ]. The precipitate is then washed with 1N HCl, 10 mM NaPPi.
The filter discs are then counted in a scintillation counter.
Under these conditions [dGTP] and poly r(C).oligo d(G)12-18 each are approximately equal to the appropriate Km value. Approximately 5-6,000 cpm of [^3 H] GMP are incorporated into acid-precipitable material. The RT reaction is concentration- and time-dependent.

[2] = Incubation with rat liver slices (metabolism); type: in vitro ADME; conditions: four hours
Source text: Ethyl acetate extraction gave a recovery of ~70% of the tritiated material, while ~25% (~9 HPLC peaks) remained in the aqueous residue.

| metabolised at 4 h ([2]; tritiated compound 14.18 μmol, rat liver slices 6.1 g, Williams Medium E, pH 7.4, 37° C.) [%] | SMILES | IC50 [1] [µM] | radioactive HPLC peak, % of the total metabolites ([2]; ethyl acetate extract of the rat liver slice incubation of the parent compound) [%] |
| --- | --- | --- | --- |
| – | CCc1cc(CCc2nc3ccccc3o2)c(=O)[nH]c1CO [compound (I), 3-[2-(benzoxazol-2-yl)ethyl]-5-ethyl-6-hydroxymethyl-2 (1H)-pyridinone] | ~0.044 | 6 |
| ~32 | CCc1cc(CCc2nc3ccccc3o2)c(O)nc1C [compound (II), 3-[2-(Benzoxazol-2-yl)ethyl]-5-ethyl-6-methyl-2-(1H)-pyridinone] | – | – |
